Laboratory results from patent US10138260B2, “Compounds of phosphinanes and azaphosphinanes, a process for their preparation and pharmaceutical compositions containing them” (LES LABORATOIRES SERVIER, priority 2016, dated 2018).
Counter-ions that a name gives are not always drawn.

Molecular target: T1, TAFIa (Homo sapiens, UniProt Q96IY4)
T1 sequence (Q96IY4 115-423): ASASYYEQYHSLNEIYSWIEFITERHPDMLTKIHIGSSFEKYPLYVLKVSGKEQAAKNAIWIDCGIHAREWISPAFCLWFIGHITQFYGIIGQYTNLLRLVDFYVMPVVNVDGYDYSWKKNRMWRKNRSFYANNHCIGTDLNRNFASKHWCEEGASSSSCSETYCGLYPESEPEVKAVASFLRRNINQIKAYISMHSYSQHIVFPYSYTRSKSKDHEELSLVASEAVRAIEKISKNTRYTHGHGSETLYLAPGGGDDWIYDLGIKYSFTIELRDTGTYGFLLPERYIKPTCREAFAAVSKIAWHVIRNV
Experiment: Inhibition of TAFIa (hippuryl-Arg test)
Type: biochemical
Details: TAFIa 2 nM, hippuryl-arginine 5 mM, 45 minutes, relative to control containing the carrier; for inhibition at 0.01 µM: compound at 10 nM; for inhibition at 0.02 µM: compound at 20 nM
Outline: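 TAFI (4 nM) activated 20 min by thrombin/thrombomodulin with 10 mM calcium, stopped with PPACK; TAFIa (2 nM) then incubated 45 min with compound and 5 mM hippuryl-arginine in Hepes buffer, pH 7.4, 28 °C. Absorbance at 405 nm, blank-corrected; % inhibition versus carrier at 10 and 20 nM.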

## Cn1cncc1-c1cc(O)ccc1CN1CCP(=O)(O)[C@](CCCCN)(C(=O)O)C1 [Example 246, (3S)-3-(4-Aminobutyl)-4-hydroxy-1-[[4-hydroxy-2-(3-methylimidazol-4-yl)phenyl]methyl]-4-oxo-1,4-azaphosphinane-3-carboxylic acid, hydrobromide]
  inhibition at 0.01 µM: 72%
  inhibition at 0.02 µM: 86%

## Cn1nccc1-c1cc(O)ccc1CN1CCP(=O)(O)[C@](CCCCN)(C(=O)O)C1 [Example 247, (3S)-3-(4-AMINOBUTYL)-4-HYDROXY-1-[[4-HYDROXY-2-(2-METHYLPYRAZOL-3-YL)PHENYL]METHYL]-4-OXO-1,4-AZAPHOSPHINANE-3-CARBOXYLIC ACID]
  inhibition at 0.01 µM: 85%
  inhibition at 0.02 µM: 89%

## COc1ccc(-c2ccccc2CN2CCP(=O)(O)[C@](CCCCN)(C(=O)O)C2)cc1OC [Example 248, (3S)-3-(4-AMINOBUTYL)-1-[[2-(3,4-DIMETHOXYPHENYL)PHENYL]METHYL]-4-HYDROXY-4-OXO-1,4-AZAPHOSPHINANE-3-CARBOXYLIC ACID]
  inhibition at 0.01 µM: 87%
  inhibition at 0.02 µM: 95%

## Cc1ncc(-c2cc(O)ccc2CN2CCP(=O)(O)[C@](CCCCN)(C(=O)O)C2)n1C [Example 249, (3S)-3-(4-AMINOBUTYL)-1-[[2-(2,3-DIMETHYLIMIDAZOL-4-YL)-4-HYDROXYPHENYL]METHYL]-4-HYDROXY-4-OXO-1,4-AZAPHOSPHINANE-3-CARBOXYLIC ACID]
  inhibition at 0.01 µM: 88%
  inhibition at 0.02 µM: 94%

## Cc1ncc(-c2ccccc2CN2CCP(=O)(O)[C@](CCCCN)(C(=O)O)C2)n1C [Example 250, (3S)-3-(4-AMINOBUTYL)-1-[[2-(2,3-DIMETHYLIMIDAZOL-4-YL)PHENYL]-METHYL]-4-HYDROXY-4-OXO-1,4-AZAPHOSPHINANE-3-CARBOXYLIC ACID]
  inhibition at 0.01 µM: 88%
  inhibition at 0.02 µM: 97%

## NCCCC[C@@]1(C(=O)O)CN(Cc2ccc(F)cc2-c2ccc(F)c(O)c2)CCP1(=O)O [Example 251, (3S)-3-(4-AMINOBUTYL)-1-[[4-FLUORO-2-(4-FLUORO-3-HYDROXYPHENYL)-PHENYL]METHYL]-4-HYDROXY-4-OXO-1,4-AZAPHOSPHINANE-3-CARBOXYLIC ACID]
  inhibition at 0.01 µM: 70%
  inhibition at 0.02 µM: 90%

## NCCCC[C@@]1(C(=O)O)CN(Cc2ccccc2-c2ccncc2)CCP1(=O)O [Example 252, (3S)-3-(4-AMINOBUTYL)-4-HYDROXY-4-OXO-1-[(2-PYRIDIN-4-YLPHENYL)-METHYL]-1,4-AZAPHOSPHINANE-3-CARBOXYLIC ACID]
  inhibition at 0.01 µM: 76%
  inhibition at 0.02 µM: 90%
